Test results as given in patent US20070218121A1, “Compounds that inhibit caspase activity for treating glaucoma” (priority 1997, published 2007).

Tested on: HEK-293-nNOS cells transfected with mICE-lacZ (caspase-1)
Experiment: Inhibition of caspase-induced apoptosis by endogenous NO in HEK-293-nNOS cells transfected with mICE-lacZ (propidium iodide, apoptotic nuclei count)
Format: cell-based
Settings: 6 μM 4-Br-A23187 for 48 h after caspase-1 transfection; raises Ca2+ to activate nNOS and produce NO; p≦0.007; FIG. 1
Experimental: HEK-293 cells [Bredt et al., Nature 351: 714-719 (199)] overexpressing nNOS were transiently transfected with mICE-lacZ (containing the caspase-1 construct [Miura et al., Cell 75: 653-660 (1993)] or control placZ using the calcium phosphate precipitation method. Following transfection, cells were incubated in absence (0 μM) or presence of 6 μM 4-Br-A23187 for 48 h. Cells were then permeabilized, fixed, and stained with propidium iodide. Apoptotic nuclei were counted in ≧12 fields and results expressed as a percentage of total nuclei. The results are shown in FIG. 1. Values are the mean ± SEM for n≧3 from at least two experiments.

Which “apoptosis (apoptotic nuclei as percentage of total nuclei)” value does the source give for CNc1c(Br)cc2oc(C[C@H]3OC4(CC[C@H]3C)O[C@H]([C@H](C)C(=O)c3ccc[nH]3)[C@H](C)C[C@H]4C)nc2c1C(=O)O (stereo partly shown) [4-Br-A23187] here?
Its value is “highly significant decrease in apoptosis”.
